Data published in ChEMBL document CHEMBL5653631, “A Potent and Selective ULK1 Inhibitor Suppresses Autophagy and Sensitizes Cancer Cells to Nutrient Stress” (iScience, 2018).
One block for each compound: values may come before it.

Legend:
[1] = target: Fibroblast growth factor receptor 1 (Homo sapiens) (UniProt P11362); assay: Inhibition of human recombinant FGFR1 at 500 nM related to control ULK1
[2] = target: T1, Dual specificity protein kinase TTK (Homo sapiens) (UniProt P33981); assay: Inhibition of human recombinant TTK at 40 nM in presence of ATP by radiometric assay relative to control
T1 sequence (whole entry): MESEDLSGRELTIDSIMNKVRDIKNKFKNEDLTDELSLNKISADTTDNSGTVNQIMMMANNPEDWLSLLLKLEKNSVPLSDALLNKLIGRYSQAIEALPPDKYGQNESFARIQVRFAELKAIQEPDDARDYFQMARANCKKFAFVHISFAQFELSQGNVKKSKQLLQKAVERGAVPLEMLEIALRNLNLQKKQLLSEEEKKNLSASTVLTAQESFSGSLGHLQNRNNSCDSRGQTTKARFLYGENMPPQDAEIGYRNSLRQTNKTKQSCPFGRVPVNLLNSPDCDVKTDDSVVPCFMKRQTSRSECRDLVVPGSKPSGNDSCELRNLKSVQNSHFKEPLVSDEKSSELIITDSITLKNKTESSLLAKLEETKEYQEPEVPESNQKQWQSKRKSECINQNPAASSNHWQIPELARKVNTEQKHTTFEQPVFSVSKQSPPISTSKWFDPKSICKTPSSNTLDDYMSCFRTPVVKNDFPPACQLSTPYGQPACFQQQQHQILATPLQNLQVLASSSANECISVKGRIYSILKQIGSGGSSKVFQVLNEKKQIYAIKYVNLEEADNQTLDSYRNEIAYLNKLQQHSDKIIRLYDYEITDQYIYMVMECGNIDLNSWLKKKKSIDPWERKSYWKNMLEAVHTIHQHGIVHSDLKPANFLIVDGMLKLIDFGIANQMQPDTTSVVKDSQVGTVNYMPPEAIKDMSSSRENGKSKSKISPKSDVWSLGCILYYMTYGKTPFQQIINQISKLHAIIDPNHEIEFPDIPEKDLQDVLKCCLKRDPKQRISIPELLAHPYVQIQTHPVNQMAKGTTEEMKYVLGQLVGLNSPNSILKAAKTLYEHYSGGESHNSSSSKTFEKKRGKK

[3] = target: T2, Serine/threonine-protein kinase tousled-like 1 (Homo sapiens) (UniProt Q9UKI8); assay: Inhibition of human recombinant TLK1 at 40 nM related to control ULK1
T2 sequence (whole entry): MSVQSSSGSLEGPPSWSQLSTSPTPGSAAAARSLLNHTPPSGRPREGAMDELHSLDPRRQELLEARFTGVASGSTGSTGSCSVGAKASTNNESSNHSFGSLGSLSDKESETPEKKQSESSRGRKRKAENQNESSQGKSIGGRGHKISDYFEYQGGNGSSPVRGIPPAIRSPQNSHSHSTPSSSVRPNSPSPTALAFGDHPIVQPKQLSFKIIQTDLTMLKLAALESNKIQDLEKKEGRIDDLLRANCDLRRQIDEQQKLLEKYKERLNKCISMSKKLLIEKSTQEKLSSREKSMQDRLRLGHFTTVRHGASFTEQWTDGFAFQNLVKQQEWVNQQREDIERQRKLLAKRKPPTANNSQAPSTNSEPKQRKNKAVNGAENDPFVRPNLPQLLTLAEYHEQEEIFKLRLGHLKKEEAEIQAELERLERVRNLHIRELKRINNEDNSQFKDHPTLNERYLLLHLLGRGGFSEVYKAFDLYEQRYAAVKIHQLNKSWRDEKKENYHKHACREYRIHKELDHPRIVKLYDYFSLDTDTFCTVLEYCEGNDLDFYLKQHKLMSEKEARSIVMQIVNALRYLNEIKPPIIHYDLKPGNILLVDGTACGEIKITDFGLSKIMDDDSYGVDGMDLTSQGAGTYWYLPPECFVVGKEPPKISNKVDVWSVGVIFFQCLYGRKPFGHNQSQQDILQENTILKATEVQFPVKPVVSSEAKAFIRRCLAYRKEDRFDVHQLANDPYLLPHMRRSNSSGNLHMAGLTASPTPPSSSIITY

[4] = target: T3, Serine/threonine-protein kinase Chk1 (Homo sapiens) (UniProt O14757); assay: Inhibition of human recombinant CHK1 at 40 nM related to control ULK1
T3 sequence (whole entry): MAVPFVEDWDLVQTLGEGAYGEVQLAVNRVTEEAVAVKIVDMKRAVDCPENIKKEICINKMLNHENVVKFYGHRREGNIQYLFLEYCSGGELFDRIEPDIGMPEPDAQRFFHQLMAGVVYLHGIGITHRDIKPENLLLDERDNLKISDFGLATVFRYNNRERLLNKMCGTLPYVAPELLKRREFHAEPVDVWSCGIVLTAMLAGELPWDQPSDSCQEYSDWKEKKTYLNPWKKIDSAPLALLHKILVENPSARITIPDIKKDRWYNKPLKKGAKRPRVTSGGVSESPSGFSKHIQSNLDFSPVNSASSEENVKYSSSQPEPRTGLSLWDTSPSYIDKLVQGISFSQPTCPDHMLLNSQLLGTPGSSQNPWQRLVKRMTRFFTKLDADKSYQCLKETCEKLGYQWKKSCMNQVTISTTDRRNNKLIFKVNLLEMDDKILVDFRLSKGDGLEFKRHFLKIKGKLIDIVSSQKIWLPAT

[5] = target: T4, Rhodopsin kinase GRK1 (Homo sapiens) (UniProt Q15835); assay: Inhibition of human recombinant RHOK at 15 nM in presence of ATP by radiometric assay relative to control
T4 sequence (whole entry): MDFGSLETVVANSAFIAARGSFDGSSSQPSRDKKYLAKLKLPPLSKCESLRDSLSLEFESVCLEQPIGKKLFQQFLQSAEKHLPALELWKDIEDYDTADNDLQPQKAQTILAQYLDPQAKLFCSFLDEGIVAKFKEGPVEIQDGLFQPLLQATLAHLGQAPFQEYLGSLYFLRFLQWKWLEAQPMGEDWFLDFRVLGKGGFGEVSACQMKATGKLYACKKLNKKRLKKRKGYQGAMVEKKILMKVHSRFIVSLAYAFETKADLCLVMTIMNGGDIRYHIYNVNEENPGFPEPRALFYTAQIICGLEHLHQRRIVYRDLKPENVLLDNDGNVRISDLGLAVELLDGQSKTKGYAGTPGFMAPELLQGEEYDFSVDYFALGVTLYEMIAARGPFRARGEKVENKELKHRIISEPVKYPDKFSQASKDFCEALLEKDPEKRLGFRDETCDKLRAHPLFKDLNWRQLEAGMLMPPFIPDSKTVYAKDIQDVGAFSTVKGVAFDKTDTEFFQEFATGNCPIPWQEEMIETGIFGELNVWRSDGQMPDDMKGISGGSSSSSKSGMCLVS

Chain of Fibroblast growth factor receptor 1 (Homo sapiens) (P11362 22-822 limits assumed): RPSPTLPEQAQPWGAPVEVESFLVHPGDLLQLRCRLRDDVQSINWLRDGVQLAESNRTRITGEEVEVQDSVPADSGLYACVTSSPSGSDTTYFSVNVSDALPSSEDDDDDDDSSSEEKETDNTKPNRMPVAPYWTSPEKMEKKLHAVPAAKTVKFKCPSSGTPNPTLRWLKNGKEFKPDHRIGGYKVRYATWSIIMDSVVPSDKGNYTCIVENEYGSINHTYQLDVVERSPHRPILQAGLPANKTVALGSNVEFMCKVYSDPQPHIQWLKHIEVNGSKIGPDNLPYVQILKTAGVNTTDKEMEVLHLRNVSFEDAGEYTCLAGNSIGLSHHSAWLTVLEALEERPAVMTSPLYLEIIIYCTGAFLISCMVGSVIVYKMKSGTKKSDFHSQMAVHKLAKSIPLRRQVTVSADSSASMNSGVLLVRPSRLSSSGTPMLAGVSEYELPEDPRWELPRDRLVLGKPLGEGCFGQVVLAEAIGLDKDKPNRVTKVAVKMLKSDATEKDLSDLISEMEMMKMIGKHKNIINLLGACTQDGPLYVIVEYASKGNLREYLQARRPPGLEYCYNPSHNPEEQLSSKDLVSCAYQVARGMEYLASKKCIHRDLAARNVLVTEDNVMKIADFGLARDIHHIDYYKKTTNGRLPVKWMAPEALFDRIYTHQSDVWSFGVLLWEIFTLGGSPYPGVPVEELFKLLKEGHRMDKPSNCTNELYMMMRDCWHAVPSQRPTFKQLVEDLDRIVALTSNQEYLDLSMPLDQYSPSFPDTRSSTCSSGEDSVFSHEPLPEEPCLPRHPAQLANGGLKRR

fold change (FC) [1]: 0.47
SMILES: CNC(=O)c1ccccc1Oc1nc(Nc2cc(OC)c(OC)c(OC)c2)ncc1Br

inhibition [2]: 33%
fold change (FC) [3]: 0
fold change (FC) [4]: 0
SMILES: O=C(N[C@@H](C1CC1)C(F)(F)F)c1cc(-c2cnn3cc(-c4ccc(F)cc4)cnc23)cs1

inhibition [5]: 0%
SMILES: CC(C)[C@H](NC(=O)c1cc(-c2cnn3cc(-c4ccc(OCCN5CCCCC5)cc4)cnc23)cs1)C(F)(F)F
